Laboratory results taken from PubChem BioAssay AID1963867 (Molecular Pharmacology Branch, DTP, NCI, 2024).
pIC50: −log10 of the molar value.

Tested on: KRAS-mutant PDC tumor spheroid with HUVEC/MSC, viability
Test: Anticancer human tumor 327498-153-R-J2-PDC patient-derived uterine carcinosarcoma cell line growth inhibition [KRAS2]
Settings: for pIC50: curve of first compound; for viability, T/C: stronger effect = lower value; active means viability on the fitted dose curve at most 10% of control; inactive means the rest
In short: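 Combination screen of spheroid viability in tumor-cell co-cultures with endothelial (HUVEC) and mesenchymal stem cell stroma. Each agent was tested in half-log dilutions, topping at clinical Cmax or at 10 microM without a known Cmax.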

[1] = second compound 0.1 µM, first compound 0.0316 µM
[2] = second compound 0.1 µM, first compound 0.1 µM
[3] = second compound 0.1 µM, first compound 0.316 µM
[4] = second compound 0.1 µM, first compound 1 µM
[5] = second compound 0.1 µM, first compound 3.16 µM
[6] = second compound 0.1 µM, first compound 10 µM
[7] = second compound 0.316 µM, first compound 0.0316 µM
[8] = second compound 0.316 µM, first compound 0.1 µM
[9] = second compound 0.316 µM, first compound 0.316 µM
[10] = second compound 0.316 µM, first compound 1 µM
[11] = second compound 0.316 µM, first compound 3.16 µM
[12] = second compound 0.316 µM, first compound 10 µM
[13] = second compound 1 µM, first compound 0.0316 µM
[14] = second compound 1 µM, first compound 0.1 µM
[15] = second compound 1 µM, first compound 0.316 µM
[16] = second compound 1 µM, first compound 1 µM
[17] = second compound 1 µM, first compound 3.16 µM
[18] = second compound 1 µM, first compound 10 µM
[19] = second compound 3.16 µM, first compound 0.0316 µM
[20] = second compound 3.16 µM, first compound 0.1 µM
[21] = second compound 3.16 µM, first compound 0.316 µM
[22] = second compound 3.16 µM, first compound 1 µM
[23] = second compound 3.16 µM, first compound 3.16 µM
[24] = second compound 3.16 µM, first compound 10 µM
[25] = second compound 10 µM, first compound 0.0316 µM
[26] = second compound 10 µM, first compound 0.1 µM
[27] = second compound 10 µM, first compound 0.316 µM
[28] = second compound 10 µM, first compound 1 µM
[29] = second compound 10 µM, first compound 3.16 µM
[30] = second compound 10 µM, first compound 10 µM
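Further: spheroids exposed to agents for seven days before reading.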
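Wherever viability, T/C is given: 100% = DMSO vehicle wells so lower means fewer viable cells.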

Cn1nccc1Nc1nccc(-c2cc3c(s2)C(C)(C)N(CCN2CCOCC2)C3=O)n1 + COc1cc2nc(C)nc(NC(C)c3cc(N)cc(C(F)(F)F)c3)c2cc1OC1CCOC1
6.27: pIC50 (second compound 3.16 µM)
inactive: viability, T/C [1] 72.8% | viability, T/C [2] 73.2% | viability, T/C [3] 57.6% | viability, T/C [4] 46.1% | viability, T/C [5] 44% | viability, T/C [6] 31.9% | viability, T/C [7] 82.8% | viability, T/C [8] 67% | viability, T/C [9] 52.5% | viability, T/C [10] 47% | viability, T/C [11] 37.9% | viability, T/C [12] 31.6% | viability, T/C [13] 67.8% | viability, T/C [14] 65.9% | viability, T/C [15] 53.7% | viability, T/C [16] 49.4% | viability, T/C [17] 41.1% | viability, T/C [18] 33% | viability, T/C [19] 64.4% | viability, T/C [20] 57% | viability, T/C [21] 55.2% | viability, T/C [22] 45% | viability, T/C [23] 41.7% | viability, T/C [24] 36.6% | viability, T/C [25] 52.7% | viability, T/C [26] 46.4% | viability, T/C [27] 44.1% | viability, T/C [28] 43.8% | viability, T/C [29] 34.7% | viability, T/C [30] 25.4%
6.07: pIC50 (second compound 0.1 µM)
7.33: pIC50 (second compound 10 µM)
6.25: pIC50 (second compound 0.316 µM)
6.08: pIC50 (second compound 1 µM)

CC1(C)CCC(CN2CCN(c3ccc(C(=O)NS(=O)(=O)c4ccc(NCC5CCOCC5)c([N+](=O)[O-])c4)c(Oc4cnc5[nH]ccc5c4)c3)CC2)=C(c2ccc(Cl)cc2)C1 + CC1OCC2(CCN(c3cnc(Sc4ccnc(N)c4Cl)c(N)n3)CC2)C1N
5.95: pIC50 (second compound 0.316 µM)
active: viability, T/C [6] 3.49% | viability, T/C [12] 1.66% | viability, T/C [18] 0.76% | viability, T/C [24] 0.57% | viability, T/C [30] 0.27%
> 7.50: pIC50 (second compound 1 µM) | pIC50 (second compound 3.16 µM) | pIC50 (second compound 10 µM)
5.72: pIC50 (second compound 0.1 µM)
inactive: viability, T/C [1] 64.6% | viability, T/C [2] 67.3% | viability, T/C [3] 73.2% | viability, T/C [4] 66% | viability, T/C [5] 37.6% | viability, T/C [7] 53.7% | viability, T/C [8] 48.5% | viability, T/C [9] 51.1% | viability, T/C [10] 56.4% | viability, T/C [11] 28.6% | viability, T/C [13] 42% | viability, T/C [14] 42.7% | viability, T/C [15] 42% | viability, T/C [16] 41% | viability, T/C [17] 25% | viability, T/C [19] 32.6% | viability, T/C [20] 33.3% | viability, T/C [21] 30.8% | viability, T/C [22] 25.9% | viability, T/C [23] 15.6% | viability, T/C [25] 23.6% | viability, T/C [26] 28.6% | viability, T/C [27] 23.7% | viability, T/C [28] 25% | viability, T/C [29] 15.4%

CC(=O)Nc1cccc(-n2c(=O)n(C3CC3)c(=O)c3c(Nc4ccc(I)cc4F)n(C)c(=O)c(C)c32)c1 + CNCc1ccccc1-c1csc(C(C)Nc2nc(C)nc3cc(OC)c(OC)cc23)c1
active: viability, T/C (second compound 3.16 µM, first compound 0.00316 µM) 0.12% | viability, T/C (second compound 3.16 µM, first compound 0.01 µM) 5.68% | viability, T/C [19] 2.54% | viability, T/C (second compound 10 µM, first compound 0.0001 µM) 0.18% | viability, T/C (second compound 10 µM, first compound 0.000316 µM) 0.87% | viability, T/C (second compound 10 µM, first compound 0.001 µM) 0.14% | viability, T/C (second compound 10 µM, first compound 0.00316 µM) 0.14% | viability, T/C (second compound 10 µM, first compound 0.01 µM) 0.15% | viability, T/C [25] 0.21%
8.63: pIC50 (second compound 1 µM)
> 10.00: pIC50 (second compound 3.16 µM) | pIC50 (second compound 10 µM)
8.36: pIC50 (second compound 0.1 µM)
8.33: pIC50 (second compound 0.316 µM)
inactive: viability, T/C (second compound 0.1 µM, first compound 0.0001 µM) 84% | viability, T/C (second compound 0.1 µM, first compound 0.000316 µM) 67% | viability, T/C (second compound 0.1 µM, first compound 0.001 µM) 61.8% | viability, T/C (second compound 0.1 µM, first compound 0.00316 µM) 56.1% | viability, T/C (second compound 0.1 µM, first compound 0.01 µM) 43.9% | viability, T/C [1] 29.6% | viability, T/C (second compound 0.316 µM, first compound 0.0001 µM) 71.6% | viability, T/C (second compound 0.316 µM, first compound 0.000316 µM) 67.8% | viability, T/C (second compound 0.316 µM, first compound 0.001 µM) 58.4% | viability, T/C (second compound 0.316 µM, first compound 0.00316 µM) 51.3% | viability, T/C (second compound 0.316 µM, first compound 0.01 µM) 48.5% | viability, T/C [7] 27% | viability, T/C (second compound 1 µM, first compound 0.0001 µM) 70.9% | viability, T/C (second compound 1 µM, first compound 0.000316 µM) 60.8% | viability, T/C (second compound 1 µM, first compound 0.001 µM) 53.9% | viability, T/C (second compound 1 µM, first compound 0.00316 µM) 49.3% | viability, T/C (second compound 1 µM, first compound 0.01 µM) 41.9% | viability, T/C [13] 23.6% | viability, T/C (second compound 3.16 µM, first compound 0.0001 µM) 37.2% | viability, T/C (second compound 3.16 µM, first compound 0.000316 µM) 38.7% | viability, T/C (second compound 3.16 µM, first compound 0.001 µM) 22.7%
